Experiments:
[1] = target: T1, Melanocortin receptor 5 (Homo sapiens, UniProt P33032); test: Agonist activity at human MC5R stably expressed in human Flp-In-293 cells assessed as cAMP accumulation at 1 uM incubated for 45 mins in presence of IBMX by Lance Ultra cAMP assay; format: functional, cell-based
[2] = target: T2, Melanocyte-stimulating hormone receptor (Homo sapiens, UniProt Q01726); test: Agonist activity at human MC1R stably expressed in human Flp-In-293 cells assessed as cAMP accumulation incubated for 45 mins in presence of IBMX by Lance Ultra cAMP assay; format: functional, cell-based
Target sequence in this assay (Q01726 whole entry): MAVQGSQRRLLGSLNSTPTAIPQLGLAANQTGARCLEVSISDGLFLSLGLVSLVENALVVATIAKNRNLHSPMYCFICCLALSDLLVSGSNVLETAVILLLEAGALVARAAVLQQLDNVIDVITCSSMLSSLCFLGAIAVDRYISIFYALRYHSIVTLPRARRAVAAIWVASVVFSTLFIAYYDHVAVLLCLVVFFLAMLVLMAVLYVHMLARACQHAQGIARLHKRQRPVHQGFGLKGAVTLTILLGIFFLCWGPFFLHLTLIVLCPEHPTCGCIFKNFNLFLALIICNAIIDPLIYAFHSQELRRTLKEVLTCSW

[3] = target: T3, Melanocortin receptor 4 (Homo sapiens, UniProt P32245); test: Agonist activity at human MC4R stably expressed in human Flp-In-293 cells assessed as cAMP accumulation incubated for 45 mins in presence of IBMX by Lance Ultra cAMP assay; format: functional, cell-based
T3 sequence (P32245 whole entry): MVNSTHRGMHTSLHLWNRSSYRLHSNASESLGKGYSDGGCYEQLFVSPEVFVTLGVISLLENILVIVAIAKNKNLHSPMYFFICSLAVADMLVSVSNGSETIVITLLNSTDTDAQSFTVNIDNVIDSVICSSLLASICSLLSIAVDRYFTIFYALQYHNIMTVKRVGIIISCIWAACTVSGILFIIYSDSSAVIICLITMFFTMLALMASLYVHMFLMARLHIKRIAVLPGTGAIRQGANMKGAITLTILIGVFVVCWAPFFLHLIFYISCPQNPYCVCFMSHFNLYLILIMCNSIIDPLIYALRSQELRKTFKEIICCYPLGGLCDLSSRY

[4] = target: T4, Melanocortin receptor 3 (Homo sapiens, UniProt P41968); test: Agonist activity at human MC3R stably expressed in human Flp-In-293 cells assessed as cAMP accumulation at 1 uM incubated for 45 mins in presence of IBMX by Lance Ultra cAMP assay; format: functional, cell-based; conditions: filed as agonist
T4 sequence (P41968 whole entry): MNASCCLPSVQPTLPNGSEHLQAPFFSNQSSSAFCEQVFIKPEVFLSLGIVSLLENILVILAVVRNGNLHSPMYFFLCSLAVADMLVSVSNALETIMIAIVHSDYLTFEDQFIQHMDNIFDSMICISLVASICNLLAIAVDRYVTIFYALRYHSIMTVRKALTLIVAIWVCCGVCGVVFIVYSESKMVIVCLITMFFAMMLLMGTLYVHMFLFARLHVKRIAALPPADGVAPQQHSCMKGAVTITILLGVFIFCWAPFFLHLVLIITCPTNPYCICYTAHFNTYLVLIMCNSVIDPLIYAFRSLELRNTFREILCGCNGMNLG

[5] = target: T1, Melanocortin receptor 5; test: Displacement of sCy5-MT-I from human MC5R stably expressed in human HEK293 cells incubated for 2 hrs by Cheng-Prusoff equation based FACS analysis; format: cell-based
[6] = target: T4, Melanocortin receptor 3; test: Agonist activity at human MC3R stably expressed in human Flp-In-293 cells assessed as cAMP accumulation incubated for 45 mins in presence of IBMX by Lance Ultra cAMP assay; format: functional, cell-based
[7] = target: T3, Melanocortin receptor 4; test: Displacement of sCy5-MT-I from human MC4R stably expressed in human HEK293 cells incubated for 2 hrs by Cheng-Prusoff equation based FACS analysis; format: cell-based
[8] = target: T4, Melanocortin receptor 3; test: Displacement of sCy5-MT-I from human MC3R stably expressed in human HEK293 cells incubated for 2 hrs by Cheng-Prusoff equation based FACS analysis; format: cell-based
[9] = target: T2, Melanocyte-stimulating hormone receptor; test: Displacement of sCy5-MT-I from human MC1R stably expressed in human HEK293 cells incubated for 2 hrs by Cheng-Prusoff equation based FACS analysis; format: cell-based
Target sequence in this assay (Q01726 whole entry): as the sequence (Q01726 whole entry) above

[10] = target: T1, Melanocortin receptor 5; test: Agonist activity at human MC5R stably expressed in human Flp-In-293 cells assessed as cAMP accumulation incubated for 45 mins in presence of IBMX by Lance Ultra cAMP assay; format: functional, cell-based
[11] = target: T2, Melanocyte-stimulating hormone receptor; test: Agonist activity at human MC1R stably expressed in human Flp-In-293 cells assessed as cAMP accumulation at 1 uM incubated for 45 mins in presence of IBMX by Lance Ultra cAMP assay; format: functional, cell-based; conditions: filed as agonist
Target sequence in this assay (Q01726 whole entry, looked up): as the sequence (Q01726 whole entry) above

T1 sequence (P33032 whole entry): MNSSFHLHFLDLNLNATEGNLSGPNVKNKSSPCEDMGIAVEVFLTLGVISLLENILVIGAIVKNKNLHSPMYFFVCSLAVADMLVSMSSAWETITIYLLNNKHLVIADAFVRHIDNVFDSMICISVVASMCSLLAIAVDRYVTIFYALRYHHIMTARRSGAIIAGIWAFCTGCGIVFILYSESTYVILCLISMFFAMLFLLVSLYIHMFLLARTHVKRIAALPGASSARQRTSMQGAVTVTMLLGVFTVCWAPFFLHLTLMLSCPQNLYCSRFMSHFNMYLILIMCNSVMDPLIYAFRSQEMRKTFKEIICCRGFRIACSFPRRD

SMILES	Activity [1]	EC50 ([2]; read-out: EC50)	EC50 ([2]; read-out: pEC50 (converted))	EC50 ([3]; read-out: EC50)	Activity [4]	Activity ([1]; filed as agonist)	Ki [5]	EC50 [6]	Ki ([7]; read-out: pKi (converted))	Ki [8]	EC50 ([3]; read-out: pEC50 (converted))	Ki [9]	EC50 [10]	Activity [11]	Ki ([7]; read-out: Ki)
N=C(N)NCCC[C@@H]1NC(=O)[C@@H](Cc2ccccc2)NC(=O)[C@H](Cc2cnc[nH]2)NC(=O)c2cc([N+](=O)[O-])ccc2SC[C@@H](C(N)=O)NC(=O)[C@H](Cc2c[nH]c3ccccc23)NC1=O	3%														
C[C@@H]1NC(=O)c2cc(NC(=S)Nc3ccc4c(c3)C(=O)OC43c4ccc(O)cc4Oc4cc(O)ccc43)ccc2SC[C@@H](C(N)=O)NC(=O)[C@H](Cc2c[nH]c3ccccc23)NC(=O)[C@H](CCCNC(=N)N)NC(=O)[C@@H](Cc2ccccc2)NC(=O)[C@H](Cc2c[nH]cn2)NC1=O		24 nM	20.9 nM	0.98 nM	73%	64%									
C[C@H]1NC(=O)c2cc(C(=N)N)ccc2SC[C@@H](C(N)=O)NC(=O)[C@H](Cc2c[nH]c3ccccc23)NC(=O)[C@H](CCCNC(=N)N)NC(=O)[C@@H](Cc2ccccc2)NC(=O)[C@H](Cc2c[nH]cn2)NC1=O			4.79 nM			41%	> 1000 nM	91.2 nM	0.162 nM	148 nM	0.275 nM	3.55 nM			
C[C@H]1NC(=O)c2cc(C#N)ccc2SC[C@@H](C(N)=O)NC(=O)[C@H](Cc2c[nH]c3ccccc23)NC(=O)[C@H](CCCNC(=N)N)NC(=O)[C@@H](Cc2ccccc2)NC(=O)[C@H](Cc2c[nH]cn2)NC1=O	34%		2.69 nM				> 1000 nM	39.8 nM	0.141 nM	263 nM	0.501 nM	3.8 nM			
C[C@@H]1NC(=O)[C@H](Cc2c[nH]c3ccccc23)NC(=O)[C@H](CCCNC(=N)N)NC(=O)[C@@H](Cc2ccccc2)NC(=O)[C@H](Cc2c[nH]cn2)NC(=O)c2cc([N+](=O)[O-])ccc2SC[C@@H](C(N)=O)NC1=O	5%		9.77 nM				> 1000 nM	31.6 nM	1.26 nM	7.94 nM	6.31 nM	1.26 nM			
C#Cc1ccc2c(c1)C(=O)N[C@H](C)C(=O)N[C@@H](Cc1c[nH]cn1)C(=O)N[C@H](Cc1ccccc1)C(=O)N[C@@H](CCCNC(=N)N)C(=O)N[C@@H](Cc1c[nH]c3ccccc13)C(=O)N[C@H](C(N)=O)CS2			2.24 nM				> 1000 nM	34.7 nM	0.457 nM	132 nM	0.447 nM	3.39 nM	372 nM		
NC(=O)[C@@H]1CSc2ccc([N+](=O)[O-])cc2C(=O)N[C@@H](Cc2cnc[nH]2)C(=O)N[C@H](Cc2ccccc2)C(=O)N[C@@H](CCCN=C(N)N)C(=O)N[C@@H](Cc2c[nH]c3ccccc23)C(=O)N1			1260 nM				> 1000 nM	5010 nM	1.58 nM	316 nM	501 nM	126 nM			
N=C(N)NCCC[C@@H]1NC(=O)[C@@H](Cc2ccccc2)NC(=O)[C@H](Cc2c[nH]cn2)NC(=O)c2cc(N)ccc2SC[C@@H](C(N)=O)NC(=O)[C@H](Cc2c[nH]c3ccccc23)NC1=O			50.1 nM		42%	60%	> 1000 nM		0.331 nM	813 nM	316 nM	269 nM			
N#Cc1ccc2c(c1)C(=O)N[C@@H](Cc1c[nH]cn1)C(=O)N[C@H](Cc1ccccc1)C(=O)N[C@@H](CCCNC(=N)N)C(=O)N[C@@H](Cc1c[nH]c3ccccc13)C(=O)N[C@H](C(N)=O)CS2	0%				44%		> 1000 nM		0.794 nM	661 nM	63.1 nM	158 nM		58%	
C[C@H]1NC(=O)c2cc(N)ccc2SC[C@@H](C(N)=O)NC(=O)[C@H](Cc2c[nH]c3ccccc23)NC(=O)[C@H](CCCNC(=N)N)NC(=O)[C@@H](Cc2ccccc2)NC(=O)[C@H](Cc2c[nH]cn2)NC1=O	17%		10 nM				> 1000 nM	50.1 nM	0.148 nM	97.7 nM	1.58 nM	5.01 nM			
C[C@@H]1NC(=O)c2cc(-c3cn([C@@H]4O[C@H](CO)[C@@H](O)[C@H](O)[C@H]4O)nn3)ccc2SC[C@@H](C(N)=O)NC(=O)[C@H](Cc2c[nH]c3ccccc23)NC(=O)[C@H](CCCNC(=N)N)NC(=O)[C@@H](Cc2ccccc2)NC(=O)[C@H](Cc2c[nH]cn2)NC1=O			16.6 nM				> 1000 nM	63.1 nM		174 nM	0.135 nM	2.51 nM	295 nM		0.06 nM
C[C@H]1NC(=O)c2cc([N+](=O)[O-])ccc2SC[C@@H](C(N)=O)NC(=O)[C@H](Cc2c[nH]c3ccccc23)NC(=O)[C@H](CCCNC(=N)N)NC(=O)[C@@H](Cc2ccccc2)NC(=O)[C@H](Cc2c[nH]cn2)NC1=O	15%		1.58 nM				> 1000 nM	200 nM	0.102 nM	79.4 nM	1 nM	1.12 nM			
C[C@@H]1NC(=O)c2cc([N+](=O)[O-])ccc2SC[C@@H](C(N)=O)NC(=O)[C@H](Cc2c[nH]c3ccccc23)NC(=O)[C@H](CCCNC(=N)N)NC(=O)[C@@H](Cc2ccccc2)NC(=O)[C@H](Cc2c[nH]cn2)NC1=O	11%		63.1 nM				> 1000 nM	1260 nM	3.02 nM	513 nM	20 nM	56.2 nM			
C[C@H]1NC(=O)[C@H](Cc2c[nH]c3ccccc23)NC(=O)[C@H](CCCNC(=N)N)NC(=O)[C@@H](Cc2ccccc2)NC(=O)[C@H](Cc2c[nH]cn2)NC(=O)c2cc([N+](=O)[O-])ccc2SC[C@@H](C(N)=O)NC1=O	1%		33.9 nM				> 1000 nM	7.94 nM	0.871 nM	437 nM	5.01 nM	79.4 nM			
C#Cc1ccc2c(c1)C(=O)N[C@@H](Cc1c[nH]cn1)C(=O)N[C@H](Cc1ccccc1)C(=O)N[C@@H](CCCNC(=N)N)C(=O)N[C@@H](Cc1c[nH]c3ccccc13)C(=O)N[C@H](C(N)=O)CS2	14%		34.7 nM				> 1000 nM	316 nM	0.234 nM	741 nM	89.1 nM	64.6 nM			
